Laboratory results as given in ChEMBL document CHEMBL5665443, “Enzyme Inhibitor Single Concentration assay results for EUbOPEN Chemogenomics Library” (2024).

Experiments:
[1] = target: DNA-3-methyladenine glycosylase (Homo sapiens) (UniProt P29372); settings: Compound Concentration 10.0 uM;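 further: enzyme assay where MPG cuts a quenched duplex DNA oligonucleotide probe, paired with APE1 for strand incision and turnover, read as fluorescence at 594 nm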
Description: Inhibition of MPG by quantifying inhibition of MPG-mediated cleavage and dissociation of quenched duplex DNA oligonucleotides, measured as fluorescence at 594 nm. To generate a functional strand incision and increase turn-over this assay is coupled to APE1.

[2] = target: Uracil-DNA glycosylase (Homo sapiens) (UniProt P13051); settings: Compound Concentration 10.0 uM, Hit No;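 further: UNG excision on a quenched double-stranded DNA oligo probe, with APE1 added for strand incision and turnover, read as fluorescence at 594 nm as strands separate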
Description: Inhibition of UNG by quantifying inhibition of UNG-mediated cleavage and dissociation of quenched duplex DNA oligonucleotides, measured as fluorescence at 594 nm. To generate a functional strand incision and increase turn-over this assay is coupled to APE1.

[3] = target: T1, Single-strand selective monofunctional uracil DNA glycosylase (Homo sapiens) (UniProt Q53HV7); settings: Compound Concentration 10.0 uM, Hit No;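 further: enzymatic SMUG1 assay coupled with APE1, reading fluorescence at 594 nm released when a quenched double-stranded DNA oligonucleotide substrate is cleaved and separated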
T1 sequence (whole entry): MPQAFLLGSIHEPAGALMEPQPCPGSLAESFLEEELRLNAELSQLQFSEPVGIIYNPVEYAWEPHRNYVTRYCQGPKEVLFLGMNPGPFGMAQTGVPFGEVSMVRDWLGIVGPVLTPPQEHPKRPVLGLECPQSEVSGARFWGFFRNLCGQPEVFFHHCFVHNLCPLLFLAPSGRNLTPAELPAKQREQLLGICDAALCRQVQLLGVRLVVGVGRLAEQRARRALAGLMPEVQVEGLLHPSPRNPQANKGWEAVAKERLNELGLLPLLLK
Description: Inhibition of SMUG1 by quantifying inhibition of SMUG1-mediated cleavage and dissociation of quenched duplex DNA oligonucleotides, measured as fluorescence at 594 nm. To generate a functional strand incision and increase turn-over this assay is coupled to APE1.

[4] = target: Methyl-CpG-binding domain protein 4 (Homo sapiens) (UniProt O95243); settings: Compound Concentration 10.0 uM;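 further: MBD4 activity read as fluorescence at 594 nm from cleavage and release of a quenched duplex DNA oligonucleotide, with APE1 coupled to incise the strand and raise turnover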
Description: Inhibition of MBD4 by quantifying inhibition of MBD4-mediated cleavage and dissociation of quenched duplex DNA oligonucleotides, measured as fluorescence at 594 nm. To generate a functional strand incision and increase turn-over this assay is coupled to APE1.

[5] = target: N-glycosylase/DNA lyase (Homo sapiens) (UniProt O15527); settings: Compound Concentration 10.0 uM, Hit No;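 further: OGG1 cleavage of a quenched duplex DNA oligonucleotide, coupled to APE1 for strand incision, read as fluorescence at 594 nm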
Description: Inhibition of OGG1 by quantifying inhibition of OGG1-mediated cleavage and dissociation of quenched duplex DNA oligonucleotides, measured as fluorescence at 594 nm. To generate a functional strand incision and increase turn-over this assay is coupled to APE1.

[6] = target: T2, Endonuclease III-like protein 1 (Homo sapiens) (UniProt P78549); settings: Compound Concentration 10.0 uM, Hit No;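 further: enzyme assay tracking NTHL1 cutting and release of a quenched double-stranded DNA oligo substrate, read as fluorescence at 594 nm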
T2 sequence (whole entry): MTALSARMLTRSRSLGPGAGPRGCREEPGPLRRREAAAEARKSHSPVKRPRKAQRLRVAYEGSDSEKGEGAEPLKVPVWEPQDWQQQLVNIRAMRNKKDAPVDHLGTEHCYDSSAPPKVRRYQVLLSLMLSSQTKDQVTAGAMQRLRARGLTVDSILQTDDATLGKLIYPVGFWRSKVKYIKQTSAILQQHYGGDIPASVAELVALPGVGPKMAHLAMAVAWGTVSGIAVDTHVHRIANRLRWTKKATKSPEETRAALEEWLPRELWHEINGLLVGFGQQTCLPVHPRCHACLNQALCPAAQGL
Description: Inhibition of NTHL1 by quantifying inhibition of NTHL1-mediated cleavage and dissociation of quenched duplex DNA oligonucleotides, measured as fluorescence at 594 nm.

[7] = target: Endonuclease 8-like 1 (Homo sapiens) (UniProt Q96FI4); settings: Compound Concentration 10.0 uM, Hit No;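 further: fluorescence at 594 nm from quenched duplex DNA oligonucleotides released by NEIL1 cleavage and strand separation, reported as reduction of this enzyme activity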
Description: Inhibition of NEIL1 by quantifying inhibition of NEIL1-mediated cleavage and dissociation of quenched duplex DNA oligonucleotides, measured as fluorescence at 594 nm.

[8] = target: G/T mismatch-specific thymine DNA glycosylase (Homo sapiens) (UniProt Q13569); settings: Compound Concentration 10.0 uM;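 further: human TDG cleavage of quenched duplex DNA oligonucleotides coupled to APE1, strand release read as fluorescence at 594 nm, inhibition of TDG activity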
Description: Inhibition of TDG by quantifying inhibition of TDG-mediated cleavage and dissociation of quenched duplex DNA oligonucleotides, measured as fluorescence at 594 nm. To generate a functional strand incision and increase turn-over this assay is coupled to APE1.

[9] = target: T3, Endonuclease 8-like 2 (Homo sapiens) (UniProt Q969S2); settings: Compound Concentration 10.0 uM, Hit No;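 further: fluorescence at 594 nm reports NEIL2 cutting and release of a quenched double-stranded DNA oligo substrate, reduced signal read as inhibition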
T3 sequence (whole entry): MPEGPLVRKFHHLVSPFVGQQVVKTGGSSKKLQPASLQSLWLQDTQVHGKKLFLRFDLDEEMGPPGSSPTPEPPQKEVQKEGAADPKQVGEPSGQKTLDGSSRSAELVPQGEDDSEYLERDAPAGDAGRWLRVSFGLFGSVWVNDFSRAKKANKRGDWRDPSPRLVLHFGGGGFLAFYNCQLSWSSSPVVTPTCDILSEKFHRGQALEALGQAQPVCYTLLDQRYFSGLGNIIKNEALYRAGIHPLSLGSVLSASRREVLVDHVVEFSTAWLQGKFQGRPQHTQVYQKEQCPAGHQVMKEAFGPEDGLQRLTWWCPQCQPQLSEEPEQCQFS
Description: Inhibition of NEIL2 by quantifying inhibition of NEIL2-mediated cleavage and dissociation of quenched duplex DNA oligonucleotides, measured as fluorescence at 594 nm.

[10] = target: T4, Adenine DNA glycosylase (Homo sapiens) (UniProt Q9UIF7); settings: Compound Concentration 10.0 uM, Hit No;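 further: human MUTYH activity read as 594 nm fluorescence from cleavage and release of a quenched DNA duplex, coupled with APE1 for strand incision, lower signal meaning inhibition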
T4 sequence (whole entry): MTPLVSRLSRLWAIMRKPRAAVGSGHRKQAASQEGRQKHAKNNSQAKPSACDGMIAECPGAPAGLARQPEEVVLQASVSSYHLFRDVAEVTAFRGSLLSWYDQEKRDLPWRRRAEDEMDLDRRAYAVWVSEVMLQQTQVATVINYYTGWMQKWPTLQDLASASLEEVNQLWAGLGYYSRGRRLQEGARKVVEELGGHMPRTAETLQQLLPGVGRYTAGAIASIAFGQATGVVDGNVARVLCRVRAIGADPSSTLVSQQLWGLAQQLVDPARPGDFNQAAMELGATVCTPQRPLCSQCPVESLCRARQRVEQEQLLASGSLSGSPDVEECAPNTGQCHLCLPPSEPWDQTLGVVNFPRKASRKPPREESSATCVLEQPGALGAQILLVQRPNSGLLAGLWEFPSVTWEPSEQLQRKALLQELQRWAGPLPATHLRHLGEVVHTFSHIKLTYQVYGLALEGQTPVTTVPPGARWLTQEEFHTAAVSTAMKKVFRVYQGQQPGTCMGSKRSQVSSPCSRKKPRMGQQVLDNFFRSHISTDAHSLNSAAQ
Description: Inhibition of MUTYH by quantifying inhibition of MUTYH-mediated cleavage and dissociation of quenched duplex DNA oligonucleotides, measured as fluorescence at 594 nm. To generate a functional strand incision and increase turn-over this assay is coupled to APE1.

Methyl-CpG-binding domain protein 4 (Homo sapiens), sequence (O95243 whole entry, the tested form may be a part): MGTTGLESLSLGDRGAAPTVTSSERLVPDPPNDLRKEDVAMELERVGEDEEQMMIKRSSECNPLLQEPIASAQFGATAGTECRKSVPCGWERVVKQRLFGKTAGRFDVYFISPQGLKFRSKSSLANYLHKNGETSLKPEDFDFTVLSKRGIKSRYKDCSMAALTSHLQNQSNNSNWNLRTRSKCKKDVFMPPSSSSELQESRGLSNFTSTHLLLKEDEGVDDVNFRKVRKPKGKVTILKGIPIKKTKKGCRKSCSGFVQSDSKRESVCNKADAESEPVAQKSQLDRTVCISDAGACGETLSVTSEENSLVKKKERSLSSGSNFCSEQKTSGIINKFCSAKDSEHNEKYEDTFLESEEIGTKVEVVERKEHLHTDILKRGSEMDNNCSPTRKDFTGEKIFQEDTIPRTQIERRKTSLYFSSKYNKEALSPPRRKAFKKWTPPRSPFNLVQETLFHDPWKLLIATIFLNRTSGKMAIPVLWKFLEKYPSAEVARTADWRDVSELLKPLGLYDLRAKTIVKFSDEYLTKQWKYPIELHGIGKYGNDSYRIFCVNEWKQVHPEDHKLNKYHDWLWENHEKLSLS
Endonuclease 8-like 1 (Homo sapiens), sequence (Q96FI4 whole entry): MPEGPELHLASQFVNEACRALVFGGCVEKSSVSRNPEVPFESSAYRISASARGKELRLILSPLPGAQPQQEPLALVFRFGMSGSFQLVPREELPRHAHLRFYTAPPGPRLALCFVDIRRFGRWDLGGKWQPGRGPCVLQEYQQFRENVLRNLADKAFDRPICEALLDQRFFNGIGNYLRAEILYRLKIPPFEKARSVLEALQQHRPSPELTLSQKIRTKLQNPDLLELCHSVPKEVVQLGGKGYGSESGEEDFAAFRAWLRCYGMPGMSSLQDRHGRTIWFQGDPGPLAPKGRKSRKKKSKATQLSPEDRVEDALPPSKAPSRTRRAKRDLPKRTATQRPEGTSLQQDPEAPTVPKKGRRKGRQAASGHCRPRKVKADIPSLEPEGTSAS
DNA-3-methyladenine glycosylase (Homo sapiens), sequence (P29372 whole entry): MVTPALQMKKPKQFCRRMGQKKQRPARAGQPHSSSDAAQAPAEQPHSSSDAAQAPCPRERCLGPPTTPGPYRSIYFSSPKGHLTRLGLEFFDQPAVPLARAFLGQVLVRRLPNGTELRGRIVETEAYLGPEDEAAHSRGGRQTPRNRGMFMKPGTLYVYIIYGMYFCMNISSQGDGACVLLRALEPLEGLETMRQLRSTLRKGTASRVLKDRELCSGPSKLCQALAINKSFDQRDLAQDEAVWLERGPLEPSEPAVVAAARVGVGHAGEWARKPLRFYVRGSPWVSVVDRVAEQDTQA
N-glycosylase/DNA lyase (Homo sapiens), sequence (O15527 whole entry): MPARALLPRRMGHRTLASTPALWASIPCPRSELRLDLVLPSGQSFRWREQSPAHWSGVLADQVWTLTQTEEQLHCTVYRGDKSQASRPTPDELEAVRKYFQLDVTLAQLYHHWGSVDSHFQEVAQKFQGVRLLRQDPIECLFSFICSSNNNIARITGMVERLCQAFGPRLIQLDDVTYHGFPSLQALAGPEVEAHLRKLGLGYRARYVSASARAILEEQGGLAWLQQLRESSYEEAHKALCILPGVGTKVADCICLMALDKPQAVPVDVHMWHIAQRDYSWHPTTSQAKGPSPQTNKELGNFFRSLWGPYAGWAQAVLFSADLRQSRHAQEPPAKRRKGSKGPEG
G/T mismatch-specific thymine DNA glycosylase (Homo sapiens), sequence (Q13569 whole entry): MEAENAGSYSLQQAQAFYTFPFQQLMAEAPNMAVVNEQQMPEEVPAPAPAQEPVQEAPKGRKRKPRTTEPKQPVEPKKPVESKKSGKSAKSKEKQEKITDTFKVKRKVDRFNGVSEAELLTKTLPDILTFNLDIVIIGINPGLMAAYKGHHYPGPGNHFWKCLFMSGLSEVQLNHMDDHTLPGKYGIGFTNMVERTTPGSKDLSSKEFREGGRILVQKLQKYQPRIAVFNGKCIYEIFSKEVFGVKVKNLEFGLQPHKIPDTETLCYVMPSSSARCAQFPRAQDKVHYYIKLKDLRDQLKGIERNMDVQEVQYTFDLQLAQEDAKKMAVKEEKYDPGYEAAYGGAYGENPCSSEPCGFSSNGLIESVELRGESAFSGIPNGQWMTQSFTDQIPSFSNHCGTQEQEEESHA
Uracil-DNA glycosylase (Homo sapiens), sequence (P13051 whole entry): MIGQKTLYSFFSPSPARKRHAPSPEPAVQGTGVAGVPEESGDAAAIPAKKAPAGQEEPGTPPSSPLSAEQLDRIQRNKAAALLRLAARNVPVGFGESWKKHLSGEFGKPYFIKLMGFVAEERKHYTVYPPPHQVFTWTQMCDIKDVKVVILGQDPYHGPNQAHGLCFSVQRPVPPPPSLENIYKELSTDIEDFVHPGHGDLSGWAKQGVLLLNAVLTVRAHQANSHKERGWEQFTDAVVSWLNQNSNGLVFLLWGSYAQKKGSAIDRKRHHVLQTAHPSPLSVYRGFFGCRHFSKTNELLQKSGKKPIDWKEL

c1ccc2nc(N3CCNCC3)ccc2c1
inhibition ([1]; Hit No): -3.87% | inhibition [2]: 1.1% | inhibition [3]: 2.02% | inhibition ([4]; Hit No): -0.572% | inhibition [5]: -7.23% | inhibition [6]: 13.8% | inhibition [7]: 8.31% | inhibition ([8]; Hit No): 12.3% | inhibition [9]: 7.8% | inhibition [10]: 11.1%

CC[C@H](C(=O)Nc1ccccc1N1CCCC1)c1ccccc1
inhibition ([1]; Hit No): 33.7% | inhibition [2]: -2.53% | inhibition [3]: 1.62% | inhibition ([4]; Hit No): 34.6% | inhibition [5]: 0.561% | inhibition [6]: 2.22% | inhibition [7]: 13.8% | inhibition ([8]; Hit No): 33.1% | inhibition [9]: 3.22% | inhibition [10]: 20.6%

CN1CCC(c2c[nH]c3ccc(O)cc23)CC1
inhibition ([1]; Hit No): -0.341% | inhibition [2]: -5.58% | inhibition [3]: -3.74% | inhibition ([4]; Hit No): 8.69% | inhibition [5]: -0.678% | inhibition [6]: 12.9% | inhibition [7]: -2.51% | inhibition ([8]; Hit No): 22.5% | inhibition [9]: -2.39% | inhibition [10]: -5.79%

CN(C)C(=O)c1cc2cnc(Nc3ccc(N4CCNCC4)cn3)nc2n1C1CCCC1
inhibition ([1]; Hit No): 59.5% | inhibition [2]: 8.98% | inhibition [3]: 21.9% | inhibition ([4]; Hit No): 24.6% | inhibition [5]: 4.33% | inhibition [6]: -3.4% | inhibition [7]: 3.31% | inhibition ([8]; Hit No): 57.4% | inhibition [9]: -0.842% | inhibition [10]: 16.4%

O=C(O)CC1CCC2(CC1)CCN(c1cc(OC(F)(F)F)ccc1Cl)CC2
inhibition ([1]; Hit No): 14.1% | inhibition [2]: -5.76% | inhibition [3]: 4.67% | inhibition ([4]; Hit No): 25.2% | inhibition [5]: 8.63% | inhibition [6]: -1.74% | inhibition [7]: 3.8% | inhibition ([8]; Hit No): 32.9% | inhibition [9]: 7.5% | inhibition [10]: 19.4%

COc1ccc(NC(=O)c2ccc(-c3ccc(-c4noc(C)n4)cc3C)cc2)cc1OCCN(C)C
inhibition ([1]; Hit Yes): 83.7% | inhibition [2]: 2% | inhibition [3]: -6.46% | inhibition ([4]; Hit Yes): 98% | inhibition [5]: -3.51% | inhibition [6]: 8.82% | inhibition [7]: 1.34% | inhibition ([8]; Hit Yes): 101% | inhibition [9]: -1.11% | inhibition [10]: 104%

CCOC(=O)c1ccc(N2C(=O)C(O)=C(C(=O)c3ccc(OC)cc3)C2c2ccc(F)cc2)cc1 (stereo not given)
inhibition ([1]; Hit No): 15.7% | inhibition [2]: 1.33% | inhibition [3]: 1.4% | inhibition ([4]; Hit No): 55.1% | inhibition [5]: -5.97% | inhibition [6]: 21.2% | inhibition [7]: 11.9% | inhibition ([8]; Hit No): 46.7% | inhibition [9]: 0.414% | inhibition [10]: 62.9%

CCOc1c2c(c(OCC)c3ncccc13)CN(c1ccc(CS(=O)(=O)NC(=O)Cc3ccccc3OC)cc1C)C2=O
inhibition ([1]; Hit No): -2.33% | inhibition [2]: -8.19% | inhibition [3]: -1.24% | inhibition ([4]; Hit No): 14.3% | inhibition [5]: 3.01% | inhibition [6]: 7.05% | inhibition [7]: 2.17% | inhibition ([8]; Hit No): 20.4% | inhibition [9]: 2.01% | inhibition [10]: 26.6%

O=[N+]([O-])c1ccc(CN2CCOCCOCCN(Cc3ccc([N+](=O)[O-])cc3)CCOCC2)cc1
inhibition ([1]; Hit No): 31.4% | inhibition [2]: -6.52% | inhibition [3]: -2.67% | inhibition ([4]; Hit No): 13.5% | inhibition [5]: -5.46% | inhibition [6]: 23.7% | inhibition [7]: -2.36% | inhibition ([8]; Hit No): -1.51% | inhibition [9]: -0.35% | inhibition [10]: 3.42%

Nc1nc2cc(-c3cc(Cl)ccc3Oc3cc(F)c(S(=O)(=O)Nc4ncns4)cc3F)ccc2[nH]1
inhibition ([1]; Hit No): 20.7% | inhibition [2]: 1.83% | inhibition [3]: 4.45% | inhibition ([4]; Hit No): 38.8% | inhibition [5]: -2.14% | inhibition [6]: 6.35% | inhibition [7]: 6.97% | inhibition ([8]; Hit No): 33.8% | inhibition [9]: -7.23% | inhibition [10]: 39.3%

Nc1ncnc2c1ncn2[C@@H]1O[C@H](COP(=O)(O)OP(=O)(O)O)[C@@H](O)[C@H]1O
inhibition ([1]; Hit No): -6.47% | inhibition [2]: -1.19% | inhibition [3]: -0.127% | inhibition ([4]; Hit No): 10.8% | inhibition [5]: -9.66% | inhibition [6]: 11.3% | inhibition [7]: 8.75% | inhibition ([8]; Hit No): 26.4% | inhibition [9]: 1.69% | inhibition [10]: 18.3%

Clc1ccccc1C(c1ccccc1)(c1ccccc1)n1cccn1
inhibition ([1]; Hit No): -4.99% | inhibition [2]: -9.12% | inhibition [3]: -6.62% | inhibition ([4]; Hit No): 5.21% | inhibition [5]: -9.77% | inhibition [6]: 15.4% | inhibition [7]: 5.94% | inhibition ([8]; Hit No): 10.7% | inhibition [9]: -6.46% | inhibition [10]: 23.9%

O=C1NCN(c2ccccc2)C12CCN(CCCOc1ccc(F)cc1)CC2
inhibition ([1]; Hit No): -9.19% | inhibition [2]: -6.4% | inhibition [3]: 13.1% | inhibition ([4]; Hit No): 6.25% | inhibition [5]: -4.77% | inhibition [6]: 4.86% | inhibition [7]: -1.54% | inhibition ([8]; Hit No): 13.9% | inhibition [9]: 2.26% | inhibition [10]: -5.23%

CN[C@@H]1CCc2[nH]c3ccc(C(N)=O)cc3c2C1
inhibition ([1]; Hit No): -3.1% | inhibition [2]: -5.51% | inhibition [3]: -7.16% | inhibition ([4]; Hit No): 14.9% | inhibition [5]: 3.36% | inhibition [6]: -9.8% | inhibition [7]: 8.84% | inhibition ([8]; Hit No): 16.1% | inhibition [9]: -0.483% | inhibition [10]: -4.97%

FC(F)(F)Oc1ccc(-c2ccc3nnc(C(F)(F)F)n3c2)cc1
inhibition ([1]; Hit No): 7.52% | inhibition [2]: -4.54% | inhibition [3]: -3.97% | inhibition ([4]; Hit No): 3.41% | inhibition [5]: -7.36% | inhibition [6]: 27.8% | inhibition [7]: 0.158% | inhibition ([8]; Hit No): -4.99% | inhibition [9]: -5.19% | inhibition [10]: -0.755%

O=c1c(Br)ccc2n1C[C@@H]1CNC[C@H]2C1
inhibition ([1]; Hit No): 3.69% | inhibition [2]: -0.226% | inhibition [3]: 8.97% | inhibition ([4]; Hit No): 13.1% | inhibition [5]: -1.3% | inhibition [6]: 8.82% | inhibition [7]: 1.79% | inhibition ([8]; Hit No): 22.8% | inhibition [9]: -6.72% | inhibition [10]: -5.79%

CCCN(CCC)CCc1cccc2c1CC(=O)N2
inhibition ([1]; Hit No): -1.21% | inhibition [2]: -9.36% | inhibition [3]: -5.12% | inhibition ([4]; Hit No): 2.3% | inhibition [5]: -5.66% | inhibition [6]: -4.67% | inhibition [7]: 7.51% | inhibition ([8]; Hit No): 8.55% | inhibition [9]: 1.01% | inhibition [10]: 10.1%

CC(=O)Nc1cccc2c1c(Sc1ccc(Cl)cc1)c(C)n2CC(=O)O
inhibition ([1]; Hit No): 5.39% | inhibition [2]: -0.965% | inhibition [3]: -1.39% | inhibition ([4]; Hit No): 11.4% | inhibition [5]: 3.49% | inhibition [6]: 6.32% | inhibition [7]: -0.204% | inhibition ([8]; Hit No): 16.4% | inhibition [9]: 5.76% | inhibition [10]: 23.9%

CC(C)C[C@@H](C(=O)N[C@@H](Cc1ccc(OCc2ccccc2)cc1)C(=O)NC(C)(C)C)N(C)Cc1ccc(C(C)(C)C)cc1
inhibition ([1]; Hit No): 6.32% | inhibition [2]: -6.44% | inhibition [3]: -4.08% | inhibition ([4]; Hit No): 16.1% | inhibition [5]: 14.7% | inhibition [6]: 23.7% | inhibition [7]: 2.38% | inhibition ([8]; Hit No): 11.4% | inhibition [9]: -9.01% | inhibition [10]: 5.01%

C[C@@H](CN1CCC(Cc2ccccc2)CC1)[C@@H](O)c1ccc(O)cc1
inhibition ([1]; Hit No): -5.23% | inhibition [2]: -6.48% | inhibition [3]: 4.28% | inhibition ([4]; Hit No): -0.918% | inhibition [5]: -8.67% | inhibition [6]: 12.9% | inhibition [7]: 3.42% | inhibition ([8]; Hit No): -7.39% | inhibition [9]: 2.2% | inhibition [10]: -7.47%

COc1cccc2c1c(NS(=O)(=O)c1ccc(Cl)s1)nn2Cc1cccc(CNC(=O)C(C)(C)O)c1
inhibition ([1]; Hit No): -4.44% | inhibition [2]: -8.69% | inhibition [3]: -4.59% | inhibition ([4]; Hit No): 19.3% | inhibition [5]: -5.21% | inhibition [6]: 8% | inhibition [7]: -1.47% | inhibition ([8]; Hit No): 0.908% | inhibition [9]: 1.18% | inhibition [10]: 7.32%
